Test results taken from patent US11547681B2, “N-acylethanolamide derivatives and uses thereof” (ELIEM THERAPEUTICS, INC., priority 2016, dated 2023).

Experiment: in vitro
Details: for Concentration (μM) of analyte PEA, 0 min / Concentration (μM) of analyte PEA, 10 min / Concentration (μM) of analyte PEA, 20 min / Concentration (μM) of analyte PEA, 30 min / Concentration (μM) of analyte PEA, 60 min / % Remaining of Initial (n = 1), 0 min / % Remaining of Initial (n = 1), 10 min / % Remaining of Initial (n = 1), 20 min / % Remaining of Initial (n = 1), 30 min / % Remaining of Initial (n = 1), 60 min: 1 μM; for % Remaining of Initial (n = 1), 0 min: s9, 0 h; for % Remaining of Initial (n = 1), 10 min: s9, 10 min; for % Remaining of Initial (n = 1), 20 min: s9, 20 min; for % Remaining of Initial (n = 1), 30 min: s9, 0.5 h; for % Remaining of Initial (n = 1), 60 min: s9, 1 h; for half-life at 1 μM: s9, Half-life (min)
Protocol: Reaction mixture, minus cofactors, was prepared as described below. Test article was added into the reaction mixture at a final concentration of 1 μM. […] An aliquot of the reaction mixture (without cofactor cocktail) was equilibrated in a shaking water bath at 37° C. for 3 minutes. The reaction was initiated by the addition of cofactor cocktail (see below), and the mixture was then incubated in a shaking water bath at 37° C. Aliquots (100 μL) were withdrawn 0, 10, 20, 30 and 60 minutes. Test article samples were immediately combined with 300 μL of ice-cold acetonitrile containing 1% formic acid. Control samples were immediately combined with 400 μL of ice-cold 50/50 acetonitrile (ACN)/dH2O containing 0.1% formic acid and internal standard to terminate the reaction. Samples were then mixed and centrifuged to precipitate proteins. Calibration standards were prepared in matched matrix. Samples and standards were assayed by LC-MS/MS using electrospray ionization for both the dosed prodrug and the expected drug (PEA). Analytical conditions are outlined in Appendix 8-1. Test article concentration at each time point was compared to the test article concentration at time 0 to determine the percent remaining at each time point. Half-lives were calculated using GraphPad software, fitting to a single-phase exponential decay equation.
Reaction mixture, minus cofactors, was prepared as described below. Test article was added into the reaction mixture at a final concentration of 1 μM. […] An aliquot of the reaction mixture (without cofactor cocktail) was equilibrated in a shaking water bath at 37° C. for 5 minutes. Reaction was initiated by the addition of cofactor cocktail (see below), and mixture was then incubated in a shaking water bath at 37° C. Aliquots (100 μL) were withdrawn at 0, 10, 20, 30, and 60 minutes. Test article samples were immediately combined with 300 μL of ice-cold acetonitrile containing 1% formic acid. Control samples were immediately combined with 400 μL of ice-cold 50/50 acetonitrile (ACN)/dH2O containing 0.1% formic acid and internal standard to terminate the reaction. Samples were then mixed and centrifuged to precipitate proteins. Calibration standards were prepared in matched matrix. Samples and standards were assayed by LC-MS/MS using electrospray ionization for both dosed prodrug and expected drug (PEA). Analytical conditions are outlined in Appendix 10-1. Test article concentration at each time point was compared to test article concentration at time 0 to determine the percent remaining at each time point. Half-lives were calculated using GraphPad software, fitting to a single-phase exponential decay equation.
The reaction mixture, minus cofactors, was prepared as described below. Test article was added into the reaction mixture at a final concentration of 1 μM. […] An aliquot of the reaction mixture (without cofactor cocktail) was equilibrated in a shaking water bath at 37° C. for 3 minutes. Reaction was initiated by the addition of cofactor cocktail (see below), and the mixture was then incubated in a shaking water bath at 37° C. Aliquots (100 μL) were withdrawn at 0, 10, 20, 30, and 60 minutes. Test article samples were immediately combined with 300 μL of ice-cold acetonitrile containing 1% formic acid. Control samples were immediately combined with 400 μL of ice-cold 50/50 acetonitrile (ACN)/dH2O containing 0.1% formic acid and internal standard to terminate the reaction. Samples were then mixed and centrifuged to precipitate proteins. Calibration standards were prepared in matched matrix. Samples and standards were assayed by LC-MS/MS using electrospray ionization for both dosed prodrug and expected drug (PEA). Analytical conditions are outlined in Appendix 13-1. Test article concentration at each time point was compared to the test article concentration at time 0 to determine the percent remaining at each time point.

Concentration (μM) of analyte PEA, 0 min (both, human): 0.00032 µM | Concentration (μM) of analyte PEA, 10 min (both, human): 0.0058 µM | Concentration (μM) of analyte PEA, 20 min (both, human): 0.017 µM | Concentration (μM) of analyte PEA, 30 min (both, human): 0.015 µM | Concentration (μM) of analyte PEA, 60 min (both, human): 0.0096 µM | % Remaining of Initial (n = 1), 0 min (both, human): 100% | % Remaining of Initial (n = 1), 10 min (both, human): 104% | % Remaining of Initial (n = 1), 20 min (both, human): 89% | % Remaining of Initial (n = 1), 30 min (both, human): 95% | % Remaining of Initial (n = 1), 60 min (both, human): 66% | half-life at 1 μM (both, human): > 1 h | Concentration (μM) of analyte PEA, 0 min (male, Beagle, dog): 0.010 µM | Concentration (μM) of analyte PEA, 10 min (male, Beagle, dog): 0.030 µM | Concentration (μM) of analyte PEA, 20 min (male, Beagle, dog): 0.035 µM | Concentration (μM) of analyte PEA, 30 min (male, Beagle, dog): 0.031 µM | Concentration (μM) of analyte PEA, 60 min (male, Beagle, dog): 0.029 µM | % Remaining of Initial (n = 1), 0 min (male, Beagle, dog): 100% | % Remaining of Initial (n = 1), 10 min (male, Beagle, dog): 104% | % Remaining of Initial (n = 1), 20 min (male, Beagle, dog): 89% | % Remaining of Initial (n = 1), 30 min (male, Beagle, dog): 80% | % Remaining of Initial (n = 1), 60 min (male, Beagle, dog): 86% | half-life at 1 μM (male, Beagle, dog): > 1 h | Concentration (μM) of analyte PEA, 0 min (male, CD-1, mouse): 0.013 µM | Concentration (μM) of analyte PEA, 10 min (male, CD-1, mouse): 0.031 µM | Concentration (μM) of analyte PEA, 20 min (male, CD-1, mouse): 0.022 µM | Concentration (μM) of analyte PEA, 30 min (male, CD-1, mouse): 0.023 µM | Concentration (μM) of analyte PEA, 60 min (male, CD-1, mouse): 0.025 µM | % Remaining of Initial (n = 1), 0 min (male, CD-1, mouse): 100% | % Remaining of Initial (n = 1), 10 min (male, CD-1, mouse): 82% | % Remaining of Initial (n = 1), 20 min (male, CD-1, mouse): 61% | % Remaining of Initial (n = 1), 30 min (male, CD-1, mouse): 78% | % Remaining of Initial (n = 1), 60 min (male, CD-1, mouse): 61% | half-life at 1 μM (male, CD-1, mouse): > 1 h | half-life at 1 μM (male, CD-1, mouse, calculated half-life in parentheses): 1.45 h | Concentration (μM) of analyte PEA, 0 min (male, Sprague-Dawley, rat): 0.015 µM | Concentration (μM) of analyte PEA, 10 min (male, Sprague-Dawley, rat): 0.045 µM | Concentration (μM) of analyte PEA, 20 min (male, Sprague-Dawley, rat): 0.033 µM | Concentration (μM) of analyte PEA, 30 min (male, Sprague-Dawley, rat): 0.017 µM | Concentration (μM) of analyte PEA, 60 min (male, Sprague-Dawley, rat): 0.013 µM | % Remaining of Initial (n = 1), 0 min (male, Sprague-Dawley, rat): 100% | % Remaining of Initial (n = 1), 10 min (male, Sprague-Dawley, rat): 66% | % Remaining of Initial (n = 1), 20 min (male, Sprague-Dawley, rat): 69% | % Remaining of Initial (n = 1), 30 min (male, Sprague-Dawley, rat): 71% | % Remaining of Initial (n = 1), 60 min (male, Sprague-Dawley, rat): 52% | half-life at 1 μM (male, Sprague-Dawley, rat): > 1 h | half-life at 1 μM (male, Sprague-Dawley, rat, calculated half-life in parentheses): 1.2 h
SMILES: CCCCCCCCCCCCCCCC(=O)NCCOC(=O)CCC(=O)OCC(COC(=O)CCCCCCC)OC(=O)CCCCCCC (stereo not shown) [Compound I-3, PEA-Succinate-Glycerol-Di-Caprylic]
